Laboratory results taken from patent US12540117B2, “Aniline compound used as RORγ regulator” (SHANGHAI LITEDD CO., LTD., priority 2020, dated 2026).

Assays:
[1] = system: Th17 cells differentiation and secretion of IL-17; experiment: Inhibition of Th17 differentiation in human PBMC (IL-17 ELISA); format: cell-based; conditions: for Emax: Homo sapiens, PBMC, maximum inhibition rate, maximum concentration 3 μM; for IC50: IL-17 secretion, human PBMC, 48 hours
Description: Test procedure: the PBMC cells were first thawed and plated, and then stimulated with the stimulating factors (anti-hCD28: 5 μg/mL; rhTGF-β1: 5 ng/mL; rhIL-6: 20 ng/mL; rhIL-23: 10 ng/mL) to differentiate to Th17, while different concentrations of compounds were added, with the maximum concentration starting from 3 μM. After 48 hours, the supernatant was collected for IL-17 ELISA detection. The inhibition rates of the compounds to inhibit the secretion of IL-17 by Th17 cells were determined, as compared with the vehicle group, and the IC50 values were fitted with Graphad8.0.

[2] = Pharmacokinetic (PK) assay in mice; format: in vivo, C57BL/6 mice; conditions: for AUC(0-t) / Cmax / half-life / Vd / bioavailability: C57BL/6, mouse, plasma; for Vd: read-out: Vss; for bioavailability: Po 5 mg/kg vs IV 1 mg/kg
Description: The PK of each compound was determined as follows: 6 C57BL/6 mice (obtained from Shanghai Lingchang Biotechnology Co., Ltd.) were divided into two groups with 3 in each group. One group was administered intravenously at a dose of 1 mg/kg in the vehicle of 5% DMSO/95% (20% Captisol); the other group was administered by oral gavage at a dose of 5 mg/kg in the vehicle of 0.5% CMC-Na/0.5% Tween 80. Blood samples were collected from saphenous vein of lower leg in each group at 0, 0.083, 0.25, 0.5, 1, 2, 4, 6, 8 and 24 h after administration. Approximately 40 μL of the blood samples were collected into anticoagulant tubes containing EDTA-K2 Immediately after collection, the tubes were inverted at least 5 times to ensure uniform mixing, and then placed on ice. The blood samples collected at each time point were centrifuged at 4° C., 8000 rpm for 5 minutes to obtain plasma. Another 1.5 mL centrifuge tube was marked with the compound name, animal number, and time point, and the plasma was transferred to this tube. The plasma was stored at −80° C. until analysis.
Compound concentrations in the plasma were determined by UPLC-MS/MS method, and the pharmacokinetic parameters were calculated from the obtained data by Phoenix WinNolin 6.4 pharmacokinetic software.

[3] = Metabolic stability in human liver microsomes; format: in vitro ADME; conditions: for half-life: 0.5 mg protein/mL; for microsomal CLint: read-out: CLint(mic)
Description: (§1) According to standard methods for investigating in vitro metabolic stability in the art, e.g., the methods described in Kerns, Edward H. and Di Li (2008). Drug-like Properties: Concepts, Structure Design and Methods: from ADME to Toxicity Optimisation. San Diego: Academic Press; Di, Li et al., Optimisation of a Higher Throughput Microsomal Stability Screening Assay for Profiling Drug Discovery Candidates, J. Biomol. Screen. 2003, 8(4), 453, the liver microsomal metabolic stability test of the compounds of the present disclosure was carried out analogously as follows. The incubation system comprising 0.5 mg protein/mL microsomes, cofactors, and PBS, was pre-incubated at 37° C. for 3 min, and then added the substrate (i.e., the test compounds) to initiate the reaction. Samples were taken at 0, 1, 5, 10, 15, 20, 30 and 60 min from the start of the reaction, and an appropriate terminator was added to terminate the reaction. Sample treatment (n=3): appropriate samples were added respectively, vortexed and centrifuged at high speed. The supernatants were collected and detected for the substrate by HPLC-MS/MS. The peak area at the 0 mm was taken as 100%. The peak areas at other time points were converted to percentages of remaining. The natural logarithms of the percentages of remaining at each time point was plotted against the incubation time, and the slope (−k) was calculated by linear regression. Then, Clint (μL/min/mg) and half-life (T½, min.) of the compounds were calculated following the equation: Inherent clearance rate (Clint)=(k*Volume of incubation solution)/Mass of liver microsomes.

[4] = Metabolic stability in mouse liver microsomes; format: in vitro ADME, CD-1 mice; conditions: for half-life: CD-1, 0.5 mg protein/mL; for microsomal CLint: CD-1, read-out: CLint(mic)
Description: as §1

[5] = molecular target: T1, RORγt (Homo sapiens, UniProt P51449); experiment: In vitro luciferase reporter assay of RORγt inhibition (GAL4-RORγ-LBD in HEK293T); conditions: for Emax: HEK-293T, relative maximum inhibition rate relative to AZD-0284 at 10 μM; for IC50: IC50, RORγt luciferase reporter gene, HEK293T
T1 sequence (P51449 269-508 limits assumed): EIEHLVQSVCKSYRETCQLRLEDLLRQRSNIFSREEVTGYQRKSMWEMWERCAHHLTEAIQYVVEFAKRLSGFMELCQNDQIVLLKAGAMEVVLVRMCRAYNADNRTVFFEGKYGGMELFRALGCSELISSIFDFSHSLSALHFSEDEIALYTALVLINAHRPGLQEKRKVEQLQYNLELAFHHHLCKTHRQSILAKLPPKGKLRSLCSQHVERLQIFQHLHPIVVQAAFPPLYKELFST
Description: The RORγ-LBD coding sequence was inserted into pBIND plasmid (Promega, E1581). The expression vector and a reporter vector (pGL4.35 carrying a stably integrated luciferase reporter gene driven by GAL4 promoter) were co-expressed in HEK293T host cells. When the inhibitor binds to the corresponding chimeric receptor, the chimeric receptor binds to the GAL4 binding site on the reporter gene carrier and inhibits reporter gene expression. The inhibition activity of the compounds on RORγ was determined according to the intensity of the chemiluminescence signal.
2.2 Cell Transfection • a) Balancing the Trans-IT transfection reagent at room temperature; • b) Adding 20 μl of the transfection reagent and 600 μl of Opti-MEM™ medium without contacting the tube wall, mixing uniformly through blowing and pipetting by a pipette gun, and allowing to stand at room temperature for 5 minutes; • c) Adding 10 μg of the plasmid to the transfection reagent (see Step 2.2.b), and allowing to stand at room temperature for 20 minutes; • Plasmids: 5 μg of pBIND-RORγ and 5 μg of pGL4.35 plasmids were respectively added therein; • d) Adding the mixed DNA transfection reagent to a 100 mm cell culture dish (see Step 2.1); • e) Placing the dish in an incubator at 37° C. and 5% CO2 for 5 h. […] Calculation of % Inhibition
[formula] • RLUcmpd: fluorescence value of test compounds • RLUpositive: average value of positive control • RLUvehicle: average value of negative control
IC50s of the compounds were calculated by fitting the % Inhibition and the logarithm values of the compound concentration using Graphad 8.0.

Row | IC50 [1] | AUC(0-t) ([2]; IV, 1 mg/kg) | Cmax ([2]; IV, 1 mg/kg) | half-life ([2]; IV, 1 mg/kg) | Vd ([2]; IV, 1 mg/kg) | bioavailability [2] | AUC(0-t) ([2]; Po, 5 mg/kg) | Cmax ([2]; Po, 5 mg/kg) | half-life ([2]; Po, 5 mg/kg) | CL_obs ([2]; IV, 1 mg/kg) | half-life [3] | Remaining % (T = 60 min) [3] | microsomal CLint [3] | half-life [4] | microsomal CLint [4] | Remaining % (T = 60 min) [4] | Emax [5] | IC50 [5] | Structure (SMILES) | Emax [1]
1 | 51.4 nM | 1850 ng·h/mL | 1390 ng/mL | 5.09 h | 2.71 L/kg | 84% | 9640 ng·h/mL | 816 ng/mL | 3.91 h | 7.12 mL/min/kg | > 2.42 h | 94.2% | < 9.6 µL/min/mg | > 2.42 h | < 9.6 µL/min/mg | 94.5% | 102% | 19.1 nM | CCS(=O)(=O)c1ccc2c(c1)CCN(C(C)=O)C2C(=O)Nc1ccc(C(O)(C(F)(F)F)C(F)(F)F)cc1 (racemic) [Example 1, 2-Acetyl-6-(ethylsulfonyl)-N-(4-(1,1,1,3,3,3-hexafluoro-2-hydroxypropan-2-yl)phenyl)-1,2,3,4-tetrahydroisoquinoline-1-carboxamide] | 79%
2 | 22.7 nM | 1300 ng·h/mL | 2310 ng/mL | 1.78 h | 1.06 L/kg | 82.1% | 5330 ng·h/mL | 553 ng/mL | 3.31 h | 12.8 mL/min/kg | > 2.42 h | 82.2% | < 9.6 µL/min/mg | > 2.42 h | < 9.6 µL/min/mg | 102.3% | 100% | 8 nM | CCS(=O)(=O)c1ccc2c(c1)CCN(C(C)=O)C2C(=O)Nc1ccc(C(O)(C(F)(F)F)C(F)(F)F)cc1 (single isomer, unassigned) [Example 2, (R)-2-acetyl-6-(ethylsulfonyl)-N-(4-(1,1,1,3,3,3-hexafluoro-2-hydroxypropan-2-yl)phenyl)-1,2,3,4-tetrahydroisoquinoline-1-carboxamide or (S)-2-acetyl-6-(ethylsulfonyl)-N-(4-(1,1,1,3,3,3-hexafluoro-2-hydroxypropan-2-yl)phenyl)-1,2,3,4-tetrahydroisoquinoline-1-carboxamide] | 78.3%
3 | 21.1 nM | 4870 ng·h/mL | 703 ng/mL | 39.9 h | 4.02 L/kg | 83.5% | 20300 ng·h/mL | 1080 ng/mL | 37.6 h | 1.23 mL/min/kg | 1.26 h | 61.0% | 18.4 µL/min/mg | > 2.42 h | < 9.6 µL/min/mg | 79.7% | 99.6% | 12.4 nM | CCS(=O)(=O)c1ccc2c(c1)CCN(C(C)=O)C2C(=O)Nc1ccc(C(F)(C(F)(F)F)C(F)(F)F)cc1 (racemic) [Example 7, 2-Acetyl-6-(ethylsulfonyl)-N-(4-(perfluoropropan-2-yl)phenyl)-1,2,3,4-tetrahydroisoquinoline-1-carboxamide] | 72%
4 |  |  |  |  |  |  |  |  |  |  | > 2.42 h | 70.2% | < 9.6 µL/min/mg | 1.54 h | 14.9 µL/min/mg | 59.4% | 99.9% | 113 nM | CCS(=O)(=O)c1cc2c(s1)C(C(=O)Nc1ccc(C(O)(C(F)(F)F)C(F)(F)F)cc1)N(C(C)=O)CC2 (centres unmarked) [Example 6, 6-Acetyl-2-(ethylsulfonyl)-N-(4-(1,1,1,3,3,3-hexafluoro-2-hydroxypropan-2-yl)phenyl)-4,5,6,7-tetrahydrothieno[2,3-c]pyridine-7-carboxamide] | 
